In patent publication US10894805B2, “Prodrugs of the selective progesterone receptor modulator (SPRM) (11β,17β)-17-Hydroxy-11-[4-(methylsulphonyl)phenyl] -17-(pentafluoroethyl)estra-4,9-dien-3-one” (BAYER PHARMA AKTIENGESELLSCHAFT, priority 2016, dated 2021):

Experiments:
[1] = test system: Progesterone receptor; details: DeManno et al., Steroids 68 (2003); cited from earlier work
[2] = biological target: recombinant human CYP3A4 (Homo sapiens, UniProt P08684); assay: In vitro metabolism of 14C-labeled Compound 1 in recombinant human CYP3A4 enzyme; type: in vitro ADME
Experimental: Recombinant human CYP3A4 was incubated with (3α,11β,17β)-11-[4-(^14C-methylsulfonyl)phenyl]-17-(pentafluoroethyl)estra-4,9-diene-3,17-diol (Compound 1).
The incubation mixture containing buffer, reconstituting system and CYP3A4 protein was prepared and given into a 37° C. shaking water bath. Incubation was started by the addition of the solution containing (3α,11β,17β)-11-[4-(methylsulfonyl)phenyl]-17-(pentafluoroethyl)estra-4,9-diene-3,17-diol (Compound 1). The samples were incubated at 37° C. in a continuously operating shaking water bath. 200 μL of the incubation mixture were removed after incubation time and the reaction was stopped by the addition of 120 μL acetonitrile on an ice bath. The stopped incubations were centrifuged for 10 minutes at 12000 rpm (7° C.). After removing of the supernatant from the protein pellet the supernatant was stored at −20° C. until they were subsequently analysed. 50 μL of the supernatants was examined by chromatography and detected by radiometry and mass spectrometry.

[3] = Plasma concentrations and pharmacokinetic parameters of Compounds 1 and 2 in rats after oral Compound 1; type: in vivo, rat; details: for Cmax: po
Experimental: Under the same conditions as described in Example 2 three single dosages of Compound 1 (0.2, 1.0 and 5 mg/kg/day) were administered to rats. Blood samples were taken from the rats at several time-points (1, 2, 4, 7 and 24 h, N=3 animals at each time-point), to allow for calculation of AUC (0-24) and Cmax of compound 1 and compound 2 in rat plasma. The plasma samples were stored at −15° C. until analysis. Compound 1 and 2 were determined in plasma after protein precipitation with acetonitrile containing the internal standards for compound 1 and compound 2. The supernatant was analyzed by separation employing high-pressure liquid chromatography and tandem mass spectrometric detection. The lower limit of quantitation (LLOQ) for Compound 1 was 1.00 μg/L, the linear range between 1.00 and 200 μg/L. The lower limit of quantitation (LLOQ) for Compound 2 was 0.200 μg/L, the linear range between 0.200 and 200 μg/L. A sample volume of 0.1 mL plasma was used. The precision for Compound 1 ranged between 0.97 and 3.73%, accuracy between 99.8 and 101.3%, for Compound 2 precision ranged between 2.01 and 6.19%, accuracy between 92.3 and 96.6% calculated from the study quality control samples.

[4] = In vitro metabolism of 14C-labeled Compound 1 in human liver microsomes; type: in vitro ADME
Experimental: Human liver microsomes were incubated with (3α,11β,17β)-11-[4-(^14C-methylsulfonyl)phenyl]-17-(pentafluoroethyl)estra-4,9-diene-3,17-diol (Compound 1).
(§1) The incubation mixture containing buffer, reconstituting system and microsomal protein was preincubated at 37° C. for 3 min. Incubation was started by the addition of the solution containing (3α,11β,17β)-11-[4-(methylsulfonyl)phenyl]-17-(pentafluoroethyl)estra-4,9-diene-3,17-diol (Compound 1). The samples were incubated at 37° C. in a continuously operating shaking water bath. The incubation reaction was stopped by the addition of 160 μL acetonitrile. The stopped incubations were centrifuged for 10 minutes at 13000 rpm (4° C.) and stored at −18° C. until they were subsequently analysed. 50 μL of the supernatant was examined by chromatography and detected by radiometry and mass spectrometry.

[5] = biological target: T1, human progesterone receptor A (Homo sapiens, UniProt P06401); assay: PR-A transactivation assay in SK-N-MC cells (method as described in WO2011/009531); type: cell-based
T1 construct: expressed in transfected cells; host or cells: SK-N-MC (human neuroblastoma cells), stably transfected
T1 sequence (P06401 1-769 isoform P06401-2): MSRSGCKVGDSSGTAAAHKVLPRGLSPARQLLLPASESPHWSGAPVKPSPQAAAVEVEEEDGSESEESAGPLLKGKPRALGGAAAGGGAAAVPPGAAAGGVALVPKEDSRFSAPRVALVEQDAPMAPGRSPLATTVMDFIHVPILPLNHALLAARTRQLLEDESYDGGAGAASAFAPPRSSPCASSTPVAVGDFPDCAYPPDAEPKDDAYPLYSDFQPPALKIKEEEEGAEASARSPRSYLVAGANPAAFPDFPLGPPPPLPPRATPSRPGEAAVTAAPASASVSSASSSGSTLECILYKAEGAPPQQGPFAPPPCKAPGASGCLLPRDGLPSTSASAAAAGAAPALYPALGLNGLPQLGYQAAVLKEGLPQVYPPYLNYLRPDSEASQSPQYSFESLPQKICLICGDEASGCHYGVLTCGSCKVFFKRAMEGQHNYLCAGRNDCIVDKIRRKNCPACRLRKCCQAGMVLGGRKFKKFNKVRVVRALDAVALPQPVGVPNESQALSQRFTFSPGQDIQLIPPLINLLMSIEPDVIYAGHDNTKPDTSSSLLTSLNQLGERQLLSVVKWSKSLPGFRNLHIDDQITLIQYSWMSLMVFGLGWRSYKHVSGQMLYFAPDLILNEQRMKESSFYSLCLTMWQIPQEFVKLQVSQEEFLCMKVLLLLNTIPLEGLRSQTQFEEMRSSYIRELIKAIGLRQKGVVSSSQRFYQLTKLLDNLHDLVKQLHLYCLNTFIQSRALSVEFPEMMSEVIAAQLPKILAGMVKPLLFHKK
Experimental: (§2) SK-N-MC cells (human neuroblastoma cells), which have been stably transfected with plasmids, which express the human progesterone receptor B ([…]) or the human progesterone receptor A (pRChPR-A-neo) and a reporter construct (pMMTV-LUC), were incubated for 24 hours either in the absence (negative control) or in the presence of increasing amounts of the respective Compound 2 (0.01 nmol/l, 0.1 nmol/l, 1 nmol/l, 10 nmol/l, 100 nmol/land […]), in order to determine the agonistic efficacy. As positive control of reporter gene induction, the cells were treated with the synthetic gestagen promegestone (0.01 nmol/l, 0.1 nmol/l, 1 nmol/l, 10 nmol/l, 100 nmol/l and […]). For determination of the antagonistic activity, the cells were treated with 0.1 nmol/l promegestone and additionally with increasing amounts of the respective test compound (0.01 nmol/l, 0.1 nmol/l, 1 nmol/l, 10 nmol/l, 100 nmol/l and […]). The activity of the LUC reporter gene (LUC=luciferase) was determined in the cell lysates and was measured as RLU (relative light units).

[6] = In vitro metabolism of 14C-labeled Compound 2 in human liver cytosol; type: in vitro ADME
Experimental: Human liver cytosol was incubated with (11β,17β)-17-Hydroxy-11-[4-(methylsulphonyl)phenyl]-17-(pentafluoroethyl)estra-4,9-dien-3-one (Compound 2).
as §1, with “and cytosolic” for “and microsomal”, “containing (11β,17β)-17-Hydroxy-11-[4-(methylsulphonyl)phenyl]-17-(pentafluoroethyl)estra-4,9-dien-3-one” for “containing (3α,11β,17β)-11-[4-(methylsulfonyl)phenyl]-17-(pentafluoroethyl)estra-4,9-diene-3,17-diol”, “(Compound 2).” for “(Compound 1).”, “bath. 250 μL of the” for “bath. The”, “incubation mixture” for “incubation reaction”, “of 100” for “of 160”

[7] = biological target: T2, human progesterone receptor B (Homo sapiens, UniProt P06401); assay: PR-B transactivation assay in SK-N-MC cells (method as described in WO2011/009531); type: cell-based
T2 construct: expressed in transfected cells; host or cells: SK-N-MC (human neuroblastoma cells), stably transfected
T2 sequence (P06401 1-933): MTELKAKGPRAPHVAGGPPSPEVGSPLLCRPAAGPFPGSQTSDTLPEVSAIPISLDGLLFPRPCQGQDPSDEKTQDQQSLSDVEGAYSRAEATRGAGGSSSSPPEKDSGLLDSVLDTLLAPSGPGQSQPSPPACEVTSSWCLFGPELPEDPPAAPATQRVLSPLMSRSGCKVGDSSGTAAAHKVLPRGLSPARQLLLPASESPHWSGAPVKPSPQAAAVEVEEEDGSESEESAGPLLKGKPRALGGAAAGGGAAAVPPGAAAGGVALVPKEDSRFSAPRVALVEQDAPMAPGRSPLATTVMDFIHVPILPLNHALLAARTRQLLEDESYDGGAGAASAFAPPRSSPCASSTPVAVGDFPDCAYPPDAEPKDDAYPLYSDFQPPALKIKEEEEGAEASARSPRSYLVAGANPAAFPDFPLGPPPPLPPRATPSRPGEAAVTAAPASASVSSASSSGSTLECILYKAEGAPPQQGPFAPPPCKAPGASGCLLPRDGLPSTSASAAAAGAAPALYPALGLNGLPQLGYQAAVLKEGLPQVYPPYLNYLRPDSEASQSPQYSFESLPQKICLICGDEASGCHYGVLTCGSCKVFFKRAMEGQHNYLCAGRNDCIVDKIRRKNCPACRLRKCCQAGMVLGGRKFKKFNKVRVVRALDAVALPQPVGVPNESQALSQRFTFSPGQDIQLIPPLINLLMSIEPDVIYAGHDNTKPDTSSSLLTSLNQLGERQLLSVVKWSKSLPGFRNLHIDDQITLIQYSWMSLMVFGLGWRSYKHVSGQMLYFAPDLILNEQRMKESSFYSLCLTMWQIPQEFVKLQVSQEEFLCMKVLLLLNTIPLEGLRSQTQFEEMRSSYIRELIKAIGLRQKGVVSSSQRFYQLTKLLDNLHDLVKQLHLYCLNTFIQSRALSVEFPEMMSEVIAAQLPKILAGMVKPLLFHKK
Experimental: as §2

[8] = Plasma concentrations of Compound 3 and its metabolite Compound 2 in rats; type: in vivo, rat
Experimental: Under the same conditions as described in Example 3, Compound 3 (5 mg/kg/day) was administered to female rats at a dose of 5 mg/kg. Blood samples were taken from the rats at several time-points (0.5, 1, 3, 6 h, N=3 animals at each time-point), to allow for calculation of AUC (0-inf) of compound 3 and compound 2 in rat plasma.
The plasma samples were stored at −15° C. until analysis. Compound 3 and compound 2 were determined in plasma after protein precipitation with acetonitrile containing the internal standards for compound 3 and compound 2. The supernatant was analyzed by separation employing high-pressure liquid chromatography and tandem mass spectrometric detection. AUC (0-inf) means Area Under the plasma Concentration vs. time curve (0-inf) from zero to infinity.

[9] = rat plasma, single p.o. dose of Compound 1, 0.2 mg/kg

Chain of recombinant human CYP3A4 (P08684 whole entry): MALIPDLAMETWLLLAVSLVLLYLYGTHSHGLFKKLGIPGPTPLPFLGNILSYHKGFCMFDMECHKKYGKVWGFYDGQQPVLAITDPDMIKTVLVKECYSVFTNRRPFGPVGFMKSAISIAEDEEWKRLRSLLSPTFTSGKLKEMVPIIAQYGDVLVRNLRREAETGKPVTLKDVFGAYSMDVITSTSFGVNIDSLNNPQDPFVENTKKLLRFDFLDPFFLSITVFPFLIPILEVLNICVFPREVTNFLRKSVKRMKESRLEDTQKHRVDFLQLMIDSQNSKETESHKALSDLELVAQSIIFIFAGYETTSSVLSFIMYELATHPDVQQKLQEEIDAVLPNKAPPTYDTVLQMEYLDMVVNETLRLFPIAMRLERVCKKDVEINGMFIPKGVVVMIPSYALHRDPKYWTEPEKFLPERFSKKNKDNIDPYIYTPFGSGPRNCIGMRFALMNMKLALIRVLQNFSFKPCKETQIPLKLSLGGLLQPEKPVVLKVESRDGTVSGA

## COC[C@]1(OC)CC[C@H]2[C@@H]3CCC4=CC(=O)CCC4=C3[C@@H](c3ccc(/C=N/O)cc3)C[C@@]21C [Asoprisnil (J867), Asoprisnil]
[1]
  Progesterone binding affinity, Relative molar Binding Affinity (RBA): about 299 % RBA

## C[C@]12C[C@H](c3ccc(S(C)(=O)=O)cc3)C3=C4CC[C@@H](O)C=C4CC[C@H]3[C@@H]1CC[C@@]2(O)C(F)(F)C(F)(F)F [Compound 1, (3α,11β,17β)-11-[4-(methylsulfonyl)phenyl]-17-(pentafluoroethyl)estra-4,9-diene-3,17-diol]
[2]; after 0.5 and 2 hours incubation with rhCYP3A4
  proportion of Compound 1 compared to 0 hr sample: marked decrease
[2]; incubation of Compound 1 with rhCYP3A4
  Compound 2 formed in the incubation sample: large quantity
[2]; incubation of Compound 1 with rhCYP3A4, after 120 min
  amount of compound 2 in the incubation sample: decreased remarkably
[2]; incubation time with rhCYP3A4 0 h
  Compound 1 (% of 14C-radioactivity): 82%
[2]; incubation time with rhCYP3A4 0.5 h
  Compound 1 (% of 14C-radioactivity): 52%
[2]; incubation time with rhCYP3A4 2 h
  Compound 1 (% of 14C-radioactivity): 2.7%
[3]; after oral Compound 1
  conversion into Compound 2 in rat: almost completely converted
[3]; [9]
  Cmax: < 1 ng/mL
  Compound 1 Cmax: <1.00 ng/mL
[3]; rat plasma, single p.o. dose of Compound 1, 1.0 mg/kg
  Cmax: 3.36 ng/mL
[3]; rat plasma, single p.o. dose of Compound 1, 5.0 mg/kg
  Cmax: 12.9 ng/mL
[3]; single oral dose of Compound 1, 5.0 mg/kg
  maximum concentration of remaining compound 1 in rat plasma: 12.9 µg/L
[4]; 1 μM, 0.5 mg/mL protein, after 1 hours incubation
  proportion of Compound 1 compared to 0 hr sample: marked decrease
[4]; incubation of 1 μM Compound 1, after 1 hour
  Compound 2 formed in the incubation sample: large quantity

## C[C@]12C[C@H](c3ccc(S(C)(=O)=O)cc3)C3=C4CCC(=O)C=C4CC[C@H]3[C@@H]1CC[C@@]2(O)C(F)(F)C(F)(F)F [Compound 2, (11β,17β)-17-Hydroxy-11-[4-(methylsulphonyl)phenyl]-17-(pentafluoroethyl)estra-4,9-dien-3-one]
[5]
  agonistic activity on PR-A: no agonistic activity
  antagonism on PR-A: very strong antagonist
[6]; 10 μM, 1.0 mg/mL cytosolic protein, NADPH, after 1 and 4 hours
  proportion of Compound 2 compared to 0 hr sample: marked decrease
[6]; absence of NADPH generating system as well as presence of NAD co-factor
  turnover of Compound 2 to Compound 1 in liver cytosol: No turnover
[6]; incubation of 10 μM Compound 2, after 1 and 4 hours
  Compound 1 formed in the incubation sample: significant quantity
[7]
  agonistic activity on PR-B: no agonistic activity
  antagonism on PR-B: very strong antagonist

## C[C@]12C[C@H](c3ccc([S@](C)(=N)=O)cc3)C3=C4CCC(=O)C=C4CCC3C1CC[C@@]2(O)C(F)(F)C(F)(F)F (stereo partly drawn) [Compound 3, (11β,17β)-17-hydroxy-11-[4-(RS-methylsulphonimidoyl)phenyl]-17-(pentafluoroethyl)estra-4,9-dien-3-one]
[8]; after oral Compound 3
  conversion into Compound 2 in rat: partially converted
[8]; po, rat plasma, single p.o. 5 mg/kg of Compound 3, female rats
  AUC(0-inf): 1240 ng·h/mL

## COC[C@]1(OC)CC[C@H]2[C@@H]3CCC4=CC(=O)CCC4=C3[C@@H](c3ccc(/C=N/O)cc3)C[C@@]21C [Compound J912]
[1]
  Progesterone binding affinity, Relative molar Binding Affinity (RBA): about 165 % RBA
